Results on one compound are retold here after publication PMC6291622, “Vitamin E Increases Antimicrobial Sensitivity by Inhibiting Bacterial Lipocalin Antibiotic Binding” (mSphere, 2018).

For this test, the target named is T1, BcnA (Burkholderia cenocepacia, UniProt B4EE32).
T1 construct: gene BCAL3311; purified BcnA expressed from pET28a-bcnA in E. coli BL21
T1 sequence (B4EE32 27-186): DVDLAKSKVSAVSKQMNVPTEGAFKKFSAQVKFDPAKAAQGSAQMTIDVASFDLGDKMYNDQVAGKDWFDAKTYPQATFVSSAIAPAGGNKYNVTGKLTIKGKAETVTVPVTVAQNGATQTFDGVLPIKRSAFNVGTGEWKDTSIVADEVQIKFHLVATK
As to the kind of experiment: isothermal titration calorimetry (ITC), […]°C, PBS pH […], N = […]. The test is classed as binding. On the technique in general: In ITC the heat of successive injections is recorded.

Molecules are shown by their SMILES. pKd: −log10 of the molar value.

Regarding `CCn1cc(C(=O)O)c(=O)c2cc(F)c(N3CCNCC3)cc21` [norfloxacin], the pKd (in general, −log10 of the Kd, conventionally taken in molar units) was 2.31.
